17 compounds from patent US6521654B2, “Substituted imidazolidine derivatives, their preparation, their use and pharmaceutical preparations including them” (Aventis Pharma Deutschland GmbH, priority 1997, dated 2003) can be followed below.

The target of the test is T1, interaction between VCAM-1 and VLA-4 (Homo sapiens, UniProt P05556+P13612).
T1 construct: supplied in their natural form as surface molecules on human U937 cells; host or cells: U937 cells carry endogenous VLA-4; The partner hVCAM-1(1-3)-IgG was made in house in transfected COS cells (ATCC CRL1651) and used as culture supernatant
T1 sequence (P13612 34-1032): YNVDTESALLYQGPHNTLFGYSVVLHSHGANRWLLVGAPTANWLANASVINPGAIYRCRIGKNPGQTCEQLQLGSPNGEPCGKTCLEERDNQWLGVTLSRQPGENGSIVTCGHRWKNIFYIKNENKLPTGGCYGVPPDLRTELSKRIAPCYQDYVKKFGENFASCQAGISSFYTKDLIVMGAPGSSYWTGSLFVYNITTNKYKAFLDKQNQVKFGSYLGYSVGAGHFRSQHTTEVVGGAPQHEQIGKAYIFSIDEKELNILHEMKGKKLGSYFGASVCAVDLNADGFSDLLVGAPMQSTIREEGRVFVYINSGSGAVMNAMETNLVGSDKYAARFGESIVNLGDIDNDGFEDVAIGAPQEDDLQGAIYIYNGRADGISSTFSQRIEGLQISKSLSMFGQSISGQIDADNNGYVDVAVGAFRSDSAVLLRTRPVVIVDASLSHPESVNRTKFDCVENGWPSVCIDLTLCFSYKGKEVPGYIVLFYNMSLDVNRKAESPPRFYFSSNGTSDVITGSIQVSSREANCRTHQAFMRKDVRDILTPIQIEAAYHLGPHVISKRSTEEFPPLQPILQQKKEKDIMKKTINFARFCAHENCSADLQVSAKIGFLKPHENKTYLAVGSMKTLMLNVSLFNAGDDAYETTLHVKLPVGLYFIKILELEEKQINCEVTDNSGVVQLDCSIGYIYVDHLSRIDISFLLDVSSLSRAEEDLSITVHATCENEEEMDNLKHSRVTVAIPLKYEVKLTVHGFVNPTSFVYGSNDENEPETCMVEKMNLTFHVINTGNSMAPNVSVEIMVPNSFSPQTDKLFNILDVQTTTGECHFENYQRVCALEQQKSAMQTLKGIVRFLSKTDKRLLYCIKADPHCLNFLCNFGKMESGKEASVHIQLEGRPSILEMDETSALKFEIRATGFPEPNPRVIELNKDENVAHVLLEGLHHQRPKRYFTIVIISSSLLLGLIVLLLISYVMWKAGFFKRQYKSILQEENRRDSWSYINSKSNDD
T1 sequence (P05556 21-798): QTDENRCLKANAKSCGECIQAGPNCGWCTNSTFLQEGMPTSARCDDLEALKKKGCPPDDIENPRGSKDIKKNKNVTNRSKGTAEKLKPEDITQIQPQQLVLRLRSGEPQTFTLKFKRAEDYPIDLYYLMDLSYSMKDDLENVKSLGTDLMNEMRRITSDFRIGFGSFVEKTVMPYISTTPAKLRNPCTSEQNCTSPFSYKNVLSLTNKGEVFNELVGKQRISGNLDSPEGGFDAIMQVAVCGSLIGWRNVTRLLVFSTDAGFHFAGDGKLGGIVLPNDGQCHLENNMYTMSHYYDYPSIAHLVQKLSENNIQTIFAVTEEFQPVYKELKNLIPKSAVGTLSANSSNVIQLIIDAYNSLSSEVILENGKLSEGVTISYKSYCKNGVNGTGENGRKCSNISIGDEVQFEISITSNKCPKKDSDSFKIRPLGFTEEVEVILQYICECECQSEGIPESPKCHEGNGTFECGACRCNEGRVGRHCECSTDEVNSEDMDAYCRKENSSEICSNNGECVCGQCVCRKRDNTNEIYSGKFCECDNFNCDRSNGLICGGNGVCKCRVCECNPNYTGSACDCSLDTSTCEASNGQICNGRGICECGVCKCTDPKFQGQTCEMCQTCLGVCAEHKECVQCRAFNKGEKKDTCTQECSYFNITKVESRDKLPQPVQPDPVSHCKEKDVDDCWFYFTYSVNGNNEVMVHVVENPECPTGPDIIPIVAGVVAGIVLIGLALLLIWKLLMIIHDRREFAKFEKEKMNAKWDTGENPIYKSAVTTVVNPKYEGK
In words: U937/VCAM-1 cell adhesion test (adhesion of U937 cells to hVCAM-1(1-3)-IgG). The class given is cell-based. The settings on record: concentration leading to 50% inhibition of adhesion of human U937 cells (ATCC CRL 1593) to hVCAM-1(1-3)-IgG. The source says:
The test method used for the activity of the compounds of the formula I on the interaction between VCAM-1 and VLA-4 is the assay described below which is specific for this interaction. The cellular binding components, i.e., the VLA-4 integrins, are supplied in their natural form as surface molecules on human U937 cells (ATCC CRL 1593). which belong to the leucocytes group. The specific binding components used are genetically engineered recombinant soluble fusion proteins, consisting of the extracytoplasmatic domain of human VCAM-1 and the constant region of a human immunoglobulin of the subclass IgG1.
Assay for the Measurement of the Adhesion of U937 Cells (ATCC CRL 1593) to hVCAM-1(1-3)-IgG
1. Preparation of Human VCAM-1 (1-3)-IgG and Human CD4-IgG
A genetic construct for the expression of the extracellular domain of human VCAM-1, associated with the genetic sequence of the heavy chain of human immunoglobulin IgG1 (hinge, CH2 and CH3 regions), from Dr. Brian Seed, Massachusetts General Hospital. Boston, USA was employed (cf. Damle and Aruffo, Proc. Natl. Acad. Sci. USA 1991, 88, 6403-6407). The soluble fusion protein hVCAM-1(1-3)-IgG contained the three amino-terminal extracellular immunoglobulin-like domains of human VCAM-1 (Damle and Aruffo, Proc. Natl. Acad. Sci. USA 1991, 88, 6403-6407). CD4-IgG (Zettimeissl et al., DNA and Cell Biology 1990, 9, 347) served as a fusion protein for negative controls. The recombinant proteins were expressed as soluble proteins after DEAE/dextran-mediated DNA transfection in COS cells (ATCC CRL1651) according to standard procedures (Ausubel et al., Current Protocols in Molecular Biology, John Wiley & Sons, Inc., 1994).
2. Assay for the Measurement of the Adhesion of U937 Cells to hVCAM-1 (1-3)-IgG
2.1 96-well microtiter test plates (Nunc Maxisorb) were incubated at room temperature for 1 hour with 100 μl/well of a goat-anti-human IgG antibody solution (10 μg/ml in 50 mM tris, pH 9.5). After removal of the antibody solution, washing was carried out once with PBS.
2.2 150 μl/well of a blocking buffer (1% BSA in PBS) were incubated on the plates at room temperature for 0.5 hour. After removal of the blocking buffer, washing was carried out once with PBS.
2.3 100 μl per well of a cell culture supernatant of transfected COS cells were incubated on the plates at room temperature for 1.5 hours. The COS cells were transfected with a plasmid which codes for the three N-terminal immunoglobulin-like domains of VCAM-1, coupled to the Fc part of human IgG1 (hVCAM-1 (1-3)-IgG). The content of hVCAM-1 (1-3)-IgG was about 0.5-1 μg/ml. After removal of the culture supernatant, washing was carried out once with PBS.
2.4 The plates were incubated at room temperature for 20 minutes with 100 μl/well of Fc receptor blocking buffer (1 mg/ml of γ-globulin, 100 mM NaCl, 100 μM MgCl2, 100 μM MnCl2, 100 μM CaCl2, 1 mg/ml of BSA in 50 mM HEPES, pH 7.5). After removal of the Fc receptor blocking buffer, washing was carried out once with PBS.
2.5 20 μl of binding buffer (100 mM NaCl, 100 μM MgCl2, 100 μM MnCl2, 100 μM CaCl2, 1 mg/ml of BSA in 50 mM HEPES, pH 7.5) were initially introduced, and the substances to be tested were added in 10 μl of binding buffer and incubated for 20 minutes. The controls used were antibodies against VCAM-1 (BBT, No. BBA6) and against VLA-4 (immunotech, No. 0764).
2.6 U937 cells were incubated in Fc receptor blocking buffer for 20 minutes and then added by pipette in a concentration of 1×10^6/ml and in an amount of 100 μl per well ([…]).
2.7 The plates were slowly immersed at an angle of 45° in stop buffer (100 mM NaCl, 100 μM MgCl2, 100 μM MnCl2, 100 μM CaCl2 in 25 mM tris, pH 7.5) and shaken off. The process was repeated.
2.8 50 μl/well of a dye solution (16.7 μg/ml of Hoechst Dye 33258, 4% formaldehyde, 0.5% triton X-100 in PBS) were then incubated on the plates for 15 minutes. […]
The term IC50 denotes the concentration that inhibits the measured activity by half. A low value points to greater potency in that assay. The compound `Cc1ccccc1NC(=O)Nc1ccc(CN2C(=O)N(CC(=O)N[C@@H](CC(=O)O)c3ccc4c(c3)OCO4)C(=O)C2(C)C)cc1` [Example 93, (S)-3-(2-(4,4-Dimethyl-3-(4-(3-(2-methylphenyl)ureido)benzyl)-2,5-dioxoimidazolidin-1-yl)acetylamino)-3-(3,4-methylenedioxyphenyl)propionic Acid] yielded an IC50 of 7 nM.

In turn, `Cc1ccccc1NC(=O)Nc1ccc(CN2C(=O)N(CC(=O)NC[C@H](NC(=O)OCc3ccccc3)C(=O)O)C(=O)C2(C)C)cc1` [Example 94] had an IC50 of 22 nM.

In turn, `Cc1ccccc1NC(=O)Nc1ccc(CN2C(=O)N([C@@H](CC(C)C)C(=O)N[C@@H](CC(=O)O)C(=O)N[C@H](C(=O)N3CCC[C@H]3C(=O)O)C(C)C)C(=O)C2(C)C)cc1` [Example 133, ((S)-2-(4,4-Dimethyl-3-(4-(3-(2-methylphenyl)ureido)benzyl)-2,5-dioxoimidazolidin-1-yl)-2-(2-methylpropyl)acetyl)-L-aspartyl-L-valyl-L-proline] returned an IC50 of 1.5 nM.

`Cc1ccccc1NC(=O)Nc1ccc(CN2C(=O)N([C@@H](CC(C)C)C(=O)N[C@@H](CC(=O)O)c3ccc4ccccc4c3)C(=O)C2(C)C)cc1` [Example 184] displayed an IC50 of 4 nM.

With `Cc1ccccc1NC(=O)Nc1ccc(CN2C(=O)N([C@@H](CC(C)C)C(=O)N[C@@H](CC(=O)O)c3ccc(-c4ccccc4)cc3)C(=O)C2(C)C)cc1` [Example 185], the IC50 was found to be 11 nM.

In the case of `Cc1ccccc1NC(=O)Nc1ccc(CN2C(=O)N([C@@H](CC(C)C)C(=O)N[C@@H](CC(=O)O)c3cccc4ccccc34)C(=O)C2(C)C)cc1` [Example 186], the midpoint of inhibition, the IC50, lay at 2.9 nM.

Take `Cc1ccccc1NC(=O)Nc1ccc(CN2C(=O)N([C@@H](CC(C)C)C(=O)N[C@@H](CC(=O)O)c3c(F)c(F)c(F)c(F)c3F)C(=O)C2(C)C)cc1` [Example 187]: 25 nM corresponded to half-maximal inhibition (IC50).

`COc1ccc([C@H](CC(=O)O)NC(=O)[C@H](CC(C)C)N2C(=O)N(Cc3ccc(NC(=O)Nc4ccccc4C)cc3)C(C)(C)C2=O)c(OC)c1` [Example 188]: the IC50 is 1.6 nM.

`COc1ccc(C(CC(=O)O)NC(=O)C(CC(C)C)N2C(=O)N(Cc3ccc(NC(=O)Nc4ccccc4C)cc3)C(C)(c3ccccc3)C2=O)cc1OC` (centres unmarked) [Example 190] displayed an IC50 of 8 nM.

`Cc1ccccc1NC(=O)Nc1ccc(CN2C(=O)N(C(CC(C)C)C(=O)NC(CC(=O)O)c3ccc(C(C)(C)C)cc3)C(=O)C2(C)c2ccccc2)cc1` (centres unmarked) [Example 191] returned an IC50 of 122 nM.

As for `Cc1ccccc1NC(=O)Nc1ccc(CN2C(=O)N(C(CC(C)C)C(=O)NC(CC(=O)O)c3ccc(F)cc3)C(=O)C2(C)c2ccccc2)cc1` (centres unmarked) [Example 192], the IC50 came to 50 nM.

`COc1ccc(C(CC(=O)O)NC(=O)C(CC(C)C)N2C(=O)N(Cc3ccc(NC(=O)Nc4ccccc4C)cc3)C(C)(c3ccccc3)C2=O)cc1` (centres unmarked) [Example 193] came in with an IC50 of 15 nM.

In turn, `Cc1ccccc1NC(=O)Nc1ccc(CN2C(=O)N(C(CC(C)C)C(=O)NC(CC(=O)O)c3ccc(CC(C)C)cc3)C(=O)C2(C)c2ccccc2)cc1` (centres unmarked) [Example 194] displayed an IC50 of 450 nM.

In the case of `COc1cccc(C(CC(=O)O)NC(=O)C(CC(C)C)N2C(=O)N(Cc3ccc(NC(=O)Nc4ccccc4C)cc3)C(C)(c3ccccc3)C2=O)c1OC` (centres unmarked) [Example 201], the IC50 is 25 nM.

As to `Cc1ccccc1NC(=O)Nc1ccc(CN2C(=O)N(C(CC(C)C)C(=O)NC(CC(=O)O)c3c(F)cccc3F)C(=O)C2(C)c2ccccc2)cc1` (centres unmarked) [Example 205], the IC50 came out at 95 nM.

`Cc1ccccc1NC(=O)Nc1ccc(CN2C(=O)N(C(CC(C)C)C(=O)NC(CC(=O)O)c3ccccc3F)C(=O)C2(C)c2ccccc2)cc1` (centres unmarked) [Example 214] had an IC50 of 17 nM.

As to `Cc1ccccc1NC(=O)Nc1ccc(CN2C(=O)N(C(CC(C)C)C(=O)NC(CC(=O)O)c3ccc(F)cc3)C(=O)C2(C)c2ccccc2)cc1` (centres unmarked) [Example 216], the IC50 worked out at 50 nM.
